Here are results for two molecules from paper PMC6556870 (European Journal of Pharmaceutical Sciences, 2019).

The structures appear in SMILES notation.

The test system of one series is rats. Conditions: rat, in vivo, cited from earlier work.
A short description of a further series: in vivo. Conditions: rat, iv. The procedure:
(§1) Fifteen male Han Wistar rats were obtained from Charles River Laboratories, Margate, UK. Animals were all in the target weight range of 163 to 215 g at dosing. Diet was removed at the end of the working day prior to each dose occasion, and returned 4 h after dosing.
(§2) Each animal received a single administration (Table 2). PO doses were administered by gavage at a nominal dose volume of 5 ml/kg. IV doses were administered via a lateral tail vein, at a nominal dose volume of 2 ml/kg, as a bolus injection. Body weights were recorded the day after arrival and before dose administration and used for calculation of doses. Samples of blood (nominally 150 μl) were collected from the jugular vein of each animal. For PO dosing this was done at 0.25, 0.5, 1, 2, 4, 6, 8 and 24 h post dose. For IV dosing this was at 0.016, 0.083, 0.5, 1, 2, 4, 8 and 24 h post dose. The actual blood collection time was used in the subsequent PK data analysis. Blood was collected into tubes containing the K2EDTA anticoagulant and stored at room temperature. Blood was centrifuged (1500g, 10 min, 4 °C) to produce plasma for analysis and residual blood cells were discarded.
Transfer of a 10 μl aliquot into a clean 2 ml […] collection plate • 2. Addition of 25 μl I-B (500 ng/ml). Addition of 25 μl methanol to all blanks • 3. Vortex mix plate (ca. 1 min) • 4. Addition of 80 μl methanol to all wells • 5. Vortex mix plate (ca. 2 min) • 6. Centrifuge 2000g plate for 10 min at room temperature • 7. Transfer 40 μl of supernatant to a clean 1.2 ml 96-well collection plate • 8. Dilute with 160 μl 10 mM of ammonium acetate:ammonium hydroxide (100:0.5 v/v) solution • 9. Vortex mix plate (ca. 2 min) • 10. Complete analysis by LC/MS-MS.

A further series has as its system Male Han Wistar rats. Nature of the series: Clinical signs / tolerability after single IV or PO administration. The method, then: as §1, §2
The following results were calculated for each group.

For a further series, the system named is humans. Set-up: method as in Knip et al., 2000. Conditions: human adults, orally; ref Knip et al., 2000; cited from earlier work.

Take `NC(=O)c1cccnc1` [NA, Nicotinamide, reference compound]: in the series on rats (ip), the “safe dose in rats, IP injection” value is recorded as 1000 mg/kg. The “safe dose in rats, subcutaneous injection” value in the series with rats (sc) was 750 mg/kg. The “time by which agent is completely cleared / plasma level returns to baseline” value in “in vivo” (male, Han Wistar) was ≤ 24 h. In “in vivo” (male, Han Wistar, 120 mg/kg), this molecule had an AUC(0-inf) of 774 µg·h/mL, an AUC(0-t) of 573 µg·h/mL, a C0 of 178 µg/mL and a Cmax of 168 µg/mL. In “in vivo” (male, Han Wistar, 120 mg/kg), this molecule gave a Vd of 0.911 L/kg and a clearance of 2.72 mL/min/kg. The half-life in the series “in vivo” (male, Han Wistar, 120 mg/kg, t½) is 4 h. Further, the “clinical signs associated with administration” value with Male Han Wistar rats (IV or PO, doses up to 120 mg/kg, fifteen male rats) was “No clinical signs”. Moreover, the “adult dose at which NA is a safe therapy” value with humans is “up to 10 g/day”.

In the case of `[2H]c1cc([2H])c(C(N)=O)cn1` [d2-NA, 4,6-d2-Nicotinamide], the “time by which agent is completely cleared / plasma level returns to baseline” value in “in vivo” is listed as ≤ 24 h. For the same molecule, in the series “in vivo” (20 mg/kg), the C0 was 28,700 ng/ml, the Cl amounted to 9.77 mL/min/kg and the volume of distribution (Vz) worked out at 0.691 L/kg. Moreover, in “in vivo” (60 mg/kg), the “AUC(0–t)” value is 196,000 h·ng/ml, the “AUC(0–∞)” value is 197,000 h·ng/ml, the C0 is on record as 82,700 ng/ml and the Cl stood at 5.12 mL/min/kg. Further, in the series “in vivo” (60 mg/kg), the maximum concentration (Cmax) is 79,400 ng/ml, the Vz is 0.963 L/kg and the t½ turned out to be 2.23 h. In “in vivo” (120 mg/kg), the C0 was 172,000 ng/ml, the Cl came to 4.37 mL/min/kg and the Vz was 0.877 L/kg. Also, the tolerability entry in the series on Male Han Wistar rats (regardless of route of administration (IV, PO), 20, 80 and 120 mg/kg, rat) is recorded as “well tolerated”.

In general, AUC(0-inf) refers to total exposure, with the tail of the curve extrapolated. For orientation: AUC(0-t) means the area under the concentration-time curve up to a stated or last time point. Read a high AUC(0-t) as more exposure. A word on the Cmax: it is the highest concentration seen after dosing. As usually defined, the Vd is the apparent volume that relates the amount in the body to the concentration in plasma or blood. Broadly, the clearance is a measure of how efficiently the substance is removed, as volume per time. A lower clearance goes with inefficient removal. Broadly, the half-life is the time needed for the level to fall by half in the phase considered. A lower half-life goes with fast loss. Usually Vz stands for a proportionality between amount in the body and measured concentration, not a real space. Broadly, the t½ is the time needed for the level to fall by half in the phase considered. A low value points to rapid decline.
